# Results reported in BindingDB's records for doi:10.1016/S0960-894X(96)00246-6 (1996).
# Assay: Inhibition of ADP-induced human platelet aggregation
row,IC50 [nM],Structure (SMILES)
1,100,CC(C)[C@H](NC(=O)[C@H](CC(=O)O)NC(=O)CCCOc1ccc(C(=N)N)cc1)C(=O)O [2-{2-[4-(4-Carbamimidoyl-phenoxy)-butyrylamino]-3-carboxy-propionylamino}-3-methyl-butyric acid (FK633)]
2,130,CC(C)C[C@H](NC(=O)[C@H](CC(=O)O)NC(=O)CCCOc1ccc(C(=N)N)cc1)C(=O)O [(S)-2-{(S)-2-[4-(4-Carbamimidoyl-phenoxy)-butyrylamino]-3-carboxy-propionylamino}-4-methyl-pentanoic acid]

# The remaining lines, values behind:
row,Structure (SMILES),IC50 [nM]
1,CN(C(=O)[C@H](CC(=O)O)NC(=O)CCCOc1ccc(C(=N)N)cc1)[C@@H](Cc1ccc(O)cc1)C(=O)O [(S)-3-[4-(4-Carbamimidoyl-phenoxy)-butyrylamino]-N-[(S)-1-carboxy-2-(4-hydroxy-phenyl)-ethyl]-N-methyl-succinamic acid],120
2,COc1ccc(C[C@H](NC(=O)[C@H](CC(=O)O)NC(=O)CCCCOc2ccc(C(=N)N)cc2)C(=O)O)cc1 [(S)-3-[5-(4-Carbamimidoyl-phenoxy)-pentanoylamino]-N-[(S)-1-carboxy-2-(4-methoxy-phenyl)-ethyl]-succinamic acid],4500
3,CC(C)(C)[C@H](NC(=O)[C@H](CC(=O)O)NC(=O)CCCOc1ccc(C(=N)N)cc1)C(=O)O,230
